Results taken from patent publication US20110223597A1 (priority 2010, published 2011).

Experiments:
[1] = system: UGTs 1A1, 1A3, 1A6, 1A7, 1A8, 1A9, 1A10, 2B4, 2B7, 2B11, 2B15 or 2B17; test: Screening of OLZ glucuronidation activity by homogenates of HEK293 cells over-expressing other wild-type UGTs; assay type: in vitro ADME, human; details: up to 250 μg of UGT-over-expressing cell homogenate
[2] = system: UGT1A4 (overall OLZ glucuronidation); test: in vitro; details: human, pH 7.5
UGT1A4 = target: T1, UGT1A4 (Homo sapiens, UniProt P22310); test: in vitro; details: homogenates from UGT1A4-over-expressing cells, pH 7.5, probe OLZ (olanzapine), 25 μM
T1 sequence (P22310 29-534): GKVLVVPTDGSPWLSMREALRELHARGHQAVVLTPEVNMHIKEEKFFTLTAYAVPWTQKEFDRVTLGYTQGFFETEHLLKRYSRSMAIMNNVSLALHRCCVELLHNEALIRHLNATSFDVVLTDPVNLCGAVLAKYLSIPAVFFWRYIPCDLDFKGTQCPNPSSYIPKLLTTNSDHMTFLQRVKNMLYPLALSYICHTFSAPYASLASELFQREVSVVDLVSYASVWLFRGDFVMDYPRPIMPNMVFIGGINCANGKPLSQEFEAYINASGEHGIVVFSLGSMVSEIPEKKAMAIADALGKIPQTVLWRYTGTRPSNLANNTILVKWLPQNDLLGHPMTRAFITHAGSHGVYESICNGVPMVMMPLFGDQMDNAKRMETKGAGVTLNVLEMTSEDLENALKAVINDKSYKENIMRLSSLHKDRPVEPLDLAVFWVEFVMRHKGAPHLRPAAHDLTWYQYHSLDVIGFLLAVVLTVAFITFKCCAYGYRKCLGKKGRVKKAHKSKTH
Procedure: Glucuronidation assays were performed in 50 mmol/L Tris buffer (pH 7.5), 10 mmol/L MgCl2, 4 mmol/L UDP-glucuronic acid (UDPGA), and 7.8 μmol/L to 4 mmol/L of substrate at 37° C. in a water bath for 2 h. […] Reactions were terminated by the addition of the same volume of cold acetonitrile as the initial reaction volume. Reactions were centrifuged at 13,000 g for 10 min at 4° C. and supernatants were collected. […] Elution consisted of a gradient elution starting with 87.5% buffer B (100% acetonitrile) and 17.5% buffer A [5 mmol/L ammonium acetate (pH 6.0)] for 5 min, a linear gradient to 90% buffer B over 1 min and held for 2 min, then a linear gradient back to initial conditions and held for 2 min for a total run time of 10 min. The flow rate was maintained at 0.5 mL/min. […] 1, 1997; 25(0:81-93, and by mass spectrometry as described herein. As controls, glucuronidation assays were performed using HLM as a positive control for glucuronidation activity and untransfected HEK293 cell homogenate protein as a negative control for glucuronidation activity. Four independent experiments were performed for kinetic analysis of UGT-over-expressing cell homogenates, with all assays within each experiment performed in duplicate; two independent experiments were performed for rate determination assays and three for kinetic analysis for HLM specimens.

Row | inhibition at 2 h, 2000 μM [2] | inhibition at 2 h, 2000 μM (UGT1A4) | SMILES | glucuronidation activity against OLZ in UGT screening [1]
1 |  |  | Cc1cc2c(s1)Nc1ccccc1N=C2N1CCN(C)CC1 [OLZ, Olanzapine] | None of the other UGTs screened
2 | 12 ± 3.4% | 41% | Nc1nnc(-c2cccc(Cl)c2Cl)c(N)n1 [LTG, lamotrigine] | 
